Data: patent US7074925B1, “N-substituted derivatives of 5-oxyiminobarbituric acid” (priority 1998, dated 2006)
Values after ≈ are worked out from the molar mass of the structure shown.

Key:
[1] = Analgesic activity, tail withdrawal from radiant heat; type: in vivo, mice
Experimental: The time needed to draw back a tail placed under a directed source of radiant heat was estimated in a group of 3 mice. Prolongation of the response time by more than 50% after intraperitoneal dosing a substance (30 mg/kg) indicated analgesic activity. Morphine sulfate (2 mg/kg) was utilized as a reference agent.

[2] = Psychodepressive activity, behavioral score; type: in vivo, mice; conditions: per oral 300 mg/kg, one hour after dosing; total 60, less than 40 significant
Experimental: Each parameter scores 2 points for an each mouse that had unchanged behavior. The total point sum was 60 (2×10×3 mice). Reducing score to less than 40 one hour after dosing with a substance per oral (300 mg/kg) denoted significant behavioral depression. Haloperidol was utilized as a reference agent.

[3] = test system: Mycobacterium tuberculosis H37RV; assay: Antimicrobial action by serial dilution (MIC), M. tuberculosis; type: cell-based; conditions: Soton medium with 10% horse serum, 72-hour cultivation at 37° C.; for MIC: Mycobacterium tuberculosis
[4] = test system: Mycobacterium smegmatis ATCC607; assay: Antimicrobial action by serial dilution (MIC), M. smegmatis; type: cell-based; conditions: for MIC: Mycolicibacterium smegmatis, ATCC607, M. smegmatis ATCC 607, medium N-1, 72-hour cultivation at 37° C.
[5] = Determination of maximal tolerable dose; type: in vivo; conditions: oral administration, mice, observed 72 hours; 300 was the maximally utilized one
Experimental: Tested substance was introduced perorally (in dose of 300 mg/kg) through a gastric tube or intraperitoneally (in dose of 100 mg/kg) to no-breed white mice with mass 18-20 g (each tested group consisted of 3 males and 3 females). Then the mouse state was observed during 72 hours. Absence of symptoms characteristic of toxic effects, or absence of animal death during the given time allows to make a conclusion that the toxicity of the test substance is low. If acute toxicity effects are observed, the dose is reduced to find maximal tolerable dose.

[6] = Antiulcerous action, water immersion stress with immobilization; type: in vivo, rats; conditions: 20 mg/kg perorally
Experimental: Antiulcerous activity of substances was tested on a model of experimental water immersion stress with immobilization. […] After that, gastric mucous membrane was investigated, number and sizes of ulcers were counted, ulceration index was determined (an average sum of ulcer lengths per one animal in a group).

[7] = test system: Human's platelet aggregation; assay: Antiaggregational properties, ADP-induced platelet aggregation; type: cell-based; conditions: 100 μg/ml, ADP […], platelet-enriched human plasma
Description: Human's platelet aggregation was investigated in plasma of healthy 50±3 years donors that was enriched by thrombocytes, by means of aggregometer FRM-1. […] Magnitude of a maximum non-reversible platelet aggregation in the control samples (solvent) was adopted as 100%, and that in tested samples was counted as the percentage compared to the control.

[8] = Hypoglycemic activity after glucose load; type: in vivo, mice; conditions: 100 mg/kg perorally, glucose 1000 mg/kg s.c.
Experimental: Test substance (100 mg/kg) was perorally administrated to fasted mice, and, immediately after that, solution of glucose (1000 mg/kg) was administrated subcutaneously. Glucose content in blood was determined in a hour by the orthotoluidine method. Reducing of glucose level by more than 20% relative to control animals indicated hypoglycemic properties. Glibenclamide (I mg/kg) was utilized as a reference agent.

[9] = Hepatoprotective activity, CCl4 liver damage (AlAT); type: in vivo, rats; conditions: for AlAT: 20 mg/kg perorally 30 minutes before and 7 hours after CCl4, 24 hours, CCl4 control 0.83 ± 0.21, intact 0.27 ± 0.04; for % of reducing AlAT: 20 mg/kg perorally, relative to CCl4 control
Experimental: CCl4 dissolved in 50% olive oil (1 ml/kg) was subcutaneously administrated to rats. Test substances were administrated perorally in a dose of 20 mg/kg 30 minutes before and 7 hours after the CCL4 administration. The activity of alanine-aminotranspherase (AlAT), which is a marker enzyme of liver parenchyma damage, was assessed twenty-four hours later. Reducing of enzyme amount by more than 30% relative to the control group was considered as evidence of hepatoprotective properties of the substance.
Silymarin in a dose of 100 mg/kg was used as a reference agent.

[10] = test system: primary culture of human lymphocytes (IFN-α production); assay: Interferon-inducing activity in primary culture of human lymphocytes; type: cell-based
Experimental: Interferon synthesis induction caused by the claimed compounds was conducted on a primary culture of human lymphocytes (it is these cells in a human organism that are the main producers of interferons). To obtain lymphocyte culture, fresh blood (within 12 hours after sampling) from healthy donors (not of group II) was used. To separate lymphocytes, heparinized blood obtained from healthy donor was centrifuged in a density gradient of ficoll-verografin of […] in order to extract a fraction of immunocompetent cells. This fraction was selected and diluted with the nutrient medium RPMI-1640, containing 5% of fetal calf serum, 0.3 mg/ml of L-glutamin, 100 un/ml of penicillin, and […] of streptomycin. The concentration of lymphocytes was considered after dying them with methylene blue and calculation of cell number in Goryaev chamber. Initial solutions of the claimed compounds were diluted with the nutrient medium RPMI-1640 so that the final concentrations of the compounds, which were obtained after introduction of lymphocyte suspension, constituted the raw: 100 μg/ml, 10 μg/ml, 1 μg/ml. The final concentration of lymphocytes in the induction mixture was 3×10^6 cell/ml.
In parallels to the test samples the following controls were done: • 1). Control of spontaneous production of interferons (IFN) by lymphocytes. • 2). […] Control of spontaneous production of interferons in presence of DMSO taken in an amount corresponding to the test samples.
Control and test samples were incubated for 24 hours at the temperature of 37° C. After incubation, the samples were centrifuged at 2,000 G to deposit cell elements, and IFN-containing supernatant was separate out of samples; then the supernatant was analyzed for the quantitative content of IFN. Cell deposition was resuspended in the previous volume of nutrient medium, coloured with vital dye trypan blue, and cell number was counted in the Goryaev chamber (as described above) to determine cytotoxic action of the compounds. The quantitative determination of content of IFN in control and test samples was conducted using the immunoenzyme test system Pro Con IF2 Plus, that is intended for determination of IFN-α, which is produced by TOO “Protein contour”. The solid-phase immunoenzyme method, utilizing horse radish peroxidase as an indicator enzyme, was used to determine the quantity of interferon in the samples. Activity of the bonded peroxidase was measured using an automatic photometer for microplates with a microprocessor at the wavelength of 450 nm.
Based on the obtained results, a calibrating curve was formed, which allows to obtain data expressed in international units (IU) of activity, using the microprocessor of the automatic photometer. The results of the analysis are expressed in IU of activity of IFN per ml in the given induction system, which contains 3×10^4 lymphocyte/ml. Each test and control point was investigated in four parallels.
Controls of immunoenzyme reaction: • 1. Control of DMSO with a nutrient medium. • 2. Control of system components (according to an instruction).
The obtained data were undergone a statistical analysis using t-criterion, and calculation of the confident interval of probability at p=0.05 was carried out. Coincidence of results in the parallel tests was analyzed.

[11] = Antioxidant action, riboflavine chemiluminescence; type: biochemical; conditions: solvent water, phosphate buffer pH 9.1
Description: To assess a general antioxidant activity the method of riboflavine chemiluminescence was used. The test substance was introduced into a system consisted of phosphate buffer (pH 9.1), solution of riboflavine, and solution of bivalent iron sulfate. Chemiluminescence was initiated by 0.1% solution of hydrogen peroxide and registered by means of luminometer. […] Ascorbic acid was used as a reference agent.

[12] = test system: Herpes virus of the type I (HSV-I/Leningrad/248/88); assay: Effect on Herpes virus, cytopathogenic action on Vero cells; type: cell-based, Herpes Simplex virus; conditions: compound 100 μg/ml
Experimental: An antiviral activity was determined with respect to Herpes virus of the type I (HSV-I/Leningrad/248/88) by means of commonly accepted method. Viruses were grown on a continuous culture of Vero cells that have been received from the Bank of Cell Cultures of the Institute of Cytology of the Russian Academy of Science.
A virus in a final concentration of […] and the claimed compounds dissolved in DMSO in final concentrations of 100, 10 and 1 mg/l were added to cells that were grown on the RPMI-1640 medium with 10% fetal calf serum and placed into wells of the 96-well plate. 5 separate wells were used for each of tested concentrations of an agent. The plate was incubated during 60 minutes at 38° C. in a CO2-incubator. After the incubation, the virus was removed and then a fresh medium containing claimed compounds in used concentrations was again introduced.
Results were evaluated basing on presence of cytopathogenic action on the cells after 36 hours of incubation at 38° C. in the CO2-incubator.
The next controls were used in the experiment: • 1. Control of cell culture (capability to grow properly) • 2. Control of the virus (evaluation of capability for reproduction) • 3. Control of an antiviral activity of an antiviral drug Acyclovir • 4. Control of compounds (toxicity of compounds) • 5. Control of a solvent (DMSO) for toxicity.
To estimate a cytopathic action of the virus, a quantity of the unchanged cells was calculated in 100 visual fields formed by a special net of an eyepiece of the inverted microscope.

Compound: CN1CC[C@]23c4c5ccc(O)c4O[C@H]2[C@@H](O)C=C[C@H]3[C@H]1C5.O=S(=O)(O)O [Morphine, Morphine sulfate, reference compound]
- Latent period of response, before dosing ([1]; before morphine sulfate 2 mg/kg): 8.3
- Latent period of response, 30 minutes after dosing ([1]; morphine sulfate 2 mg/kg): 14.6

Compound: O=C(CCCN1CCC(O)(c2ccc(Cl)cc2)CC1)c1ccc(F)cc1 [Haloperidol, reference compound]
- Point number (behavioral depression) [2]: 27

Compound: NNC(=O)c1ccncc1 [Isoniazid]
- MIC [3]: 0.1 µg/mL (≈ 0.729 µM)
- MIC [4]: 1.5 µg/mL (≈ 10.9 µM)

Compound: O=C1NC(=O)N(c2cccc(F)c2)C(=O)C1=NO [XXVI]
- Maximal tolerable dose, concentration of test substances [5]: 300 mg/kg

Compound: O=C1NC(=O)N(C2CCCCC2)C(=O)C1=NO [VIII]
- % of animals with ulcers ([6]; rats, 4 hours stress, control 100): 100%
- % of reducing number of ulcers ([6]; versus control): −64%
- % of reducing ulceration index ([6]; versus control): −35%
- Number of lesions ([6]; control 8.3 ± 2.5): 3.0 ± 1.3
- ulceration index ([6]; control 10.5 ± 5.7): 6.8 ± 4.4
- % of inhibition of platelet aggregation [7]: 68.9 ± 5.3%
- % change of glucose relative to glucose control [8]: −18%
- Glucose in blood ([8]; after one hour, glucose control 8.26 ± 0.50): 6.77 ± 0.61 mmol/L
- AlAT [9]: 0.48 ± 0.19 mmol/L/h
- % of reducing AlAT [9]: −42%

Compound: CN1C(=O)C(=NO)C(=O)N(C)C1=S [XL]
- MIC, M. tuberculosis [3]: 12.5 µg/mL (≈ 62.1 µM)
- Content of IFN in induction mixture after 24-hour incubation ([10]; substance 1 mg/l): 5.1 ± 1.0 IU/3 × 10^4 lymph./ml
- Content of IFN in induction mixture after 24-hour incubation ([10]; substance 10 mg/l): 11.3 ± 1.5 IU/3 × 10^4 lymph./ml
- Content of IFN in induction mixture after 24-hour incubation ([10]; substance 100 mg/l): 22.8 ± 1.0 IU/3 × 10^4 lymph./ml
- MIC, M. smegmatis [4]: 3.1 µg/mL (≈ 15.4 µM)

Compound: CO[C@H]1/C=C/O[C@@]2(C)Oc3c(C)c(O)c4c(O)c(cc(O)c4c3C2=O)NC(=O)/C(C)=C\C=C\[C@H](C)[C@H](O)[C@@H](C)[C@@H](O)[C@@H](C)[C@H](OC(C)=O)[C@@H]1C [Rifamycin]
- MIC [3]: 0.05 µg/mL (≈ 0.0717 µM)
- MIC [4]: 0.25 µg/mL (≈ 0.358 µM)

Compound: [H]/N=C(/N)N[C@H]1[C@H](O)[C@@H](O)[C@H](O[C@@H]2O[C@@H](C)[C@](O)(C=O)[C@H]2O[C@@H]2O[C@@H](CO)[C@H](O)[C@@H](O)[C@@H]2NC)[C@@H](N/C(N)=N\[H])[C@@H]1O [Streptomycin]
- MIC [3]: 0.2 µg/mL (≈ 0.344 µM)
- MIC [4]: 0.15 µg/mL (≈ 0.258 µM)

Compound: CC1COc2c(N3CCN(C)CC3)c(F)cc3c(=O)c(C(=O)O)cn1c23 (stereo not shown) [Ofloxacin]
- MIC [3]: 0.5 µg/mL (≈ 1.38 µM)
- MIC [4]: 0.5 µg/mL (≈ 1.38 µM)

Compound: O=C1O[C@H]([C@@H](O)CO)C(O)=C1O [Ascorbic acid, reference compound]
- IC50, suppressing chemiluminescence by 50% [11]: 2.39 µg/mL (≈ 13.6 µM)

Compound: CC[C@@H](CO)NCCN[C@@H](CC)CO [Ethambutol]
- MIC [3]: 5 µg/mL (≈ 24.5 µM)
- MIC [4]: 5 µg/mL (≈ 24.5 µM)

Compound: O=C1NC(=O)N(c2ccc(Br)cc2)C(=O)C1=NO [XXIX]
- Maximal tolerable dose, concentration of test substances [5]: 300 mg/kg
- Point number (behavioral depression) [2]: 32
- % of inhibition of platelet aggregation [7]: 16.4 ± 3.1%
- Quantity of the unchanged cells (number of cells in 100 visual fields) ([12]; Vero cells, 36 hours, cell control 10000): 3000
- percentage of protection of cells from virus ([12]; compared to the control of cell culture): (30%)
- AlAT [9]: 0.40 ± 0.04 mmol/L/h
- % of reducing AlAT [9]: −52%
